# Assay results taken from US12371454B2, “Cyclic peptide compound having Kras inhibitory action” (priority 2019, dated 2025).
# Starred links: 1 amine or outer side, 2 acyl side, 3 side chain; linkers in the order of their positions; H or OH if unused. Positions of bridges follow the written chain, without caps; N, C: chain ends. Non-standard residues stand in square brackets, D forms with d. Residues, ends and D or L forms follow the SMILES beside them. *: point of attachment. hPhe(3-Cl-4-CF3) = N[C@@H](CCc1ccc(C(F)(F)F)c(Cl)c1)C(=O)O; hPhe(3-F,4-CF3) = N[C@@H](CCc1ccc(C(F)(F)F)c(F)c1)C(=O)O; X60 = CC(C)Oc1cc(CC[C@H](N[*:1])C(=O)[*:2])cc(Cl)c1Cl; NMePhe(4-CF3) = CN[C@@H](Cc1ccc(C(F)(F)F)cc1)C(=O)O; NMePhe(4-Me) = CN[C@@H](Cc1ccc(C)cc1)C(=O)O; NMedβ3hAla = C[C@H](CC(=O)[*:2])N(C)[*:1]; NMeGly(cPent) = CN[C@H](C(=O)O)C1CCCC1; Pro(4,4-F2) = O=C(O)[C@@H]1CC(F)(F)CN1; NMeCha = CN[C@@H](CC1CCCCC1)C(=O)O; NEtLeu = CCN[C@@H](CC(C)C)C(=O)O; NMeChg = CN[C@H](C(=O)O)C1CCCCC1; NMeI = CC[C@H](C)[C@H](NC)C(=O)O; NMeD = CN[C@@H](CC(=O)O)C(=O)O; NMeL = CN[C@@H](CC(C)C)C(=O)O; dNMeAbu = CC[C@@H](NC)C(=O)O; NMeV = CN[C@H](C(=O)O)C(C)C; NMeS = CN[C@@H](CO)C(=O)O; NMeA = CN[C@@H](C)C(=O)O; Piperidide = C1CCN(*)CC1; Pyrrolidide = C1CCN(*)C1; Ac5c = NC1(C(=O)O)CCCC1; Aze = O=C(O)[C@@H]1CCN1; Cyclopropyl = C1CC1*; NEtG = CCNCC(=O)O; Sar = CNCC(=O)O; Propyl = CCC*
# Test system: Human pancreatic cancer cell line AsPC-1
# Assay: Measurement of AsPC-1 cell growth inhibition (AsPC-1 CGI)
# Type: cell-based
# Conditions: 96 h
# Protocol: Measurement of AsPC-1 Cell Growth Inhibition (AsPC-1 CGI)
# Test compounds were serially diluted with dimethyl sulfoxide, and 200 nL was then dispensed to a U-bottom 96-well plate using Labcyte Echo. Human pancreatic cancer cell line AsPC-1 was suspended in RPMI-1640 medium supplemented with 15% fetal bovine serum to prepare a cell suspension at 1000 cells/100 μL. The cell suspension was dispensed to a plate containing a test compound at 100 μL per well and incubated at 37° C. in a 5% carbon dioxide gas incubator. 96 hours later, 80 μL of CellTiter-Glo (Promega) was added to each well and […] was measured.
row,SMILES,IC50 [nM]
1,CC[C@H](C)[C@@H]1NC(=O)[C@H](CC(C)C)N(C)C(=O)C[C@@H](C(=O)N2CCCCC2)N(C)C(=O)[C@H](C2CCCCC2)N(C)C(=O)C2(CCCC2)NC(=O)[C@@H]2CCCN2C(=O)[C@H](CCc2ccc(C(F)(F)F)c(Cl)c2)NC(=O)CN(C)C(=O)[C@H](Cc2ccc(C)cc2)N(C)C(=O)[C@@H]2CCN2C(=O)[C@H](C)N(C)C1=O [Compound 1795] ([NMeL]I[NMeA][Aze][NMePhe(4-Me)][Sar][hPhe(3-Cl-4-CF3)]P[Ac5c][NMeChg][NMeD]-Piperidide; lactam N-11),50 to 100
2,CC[C@H](C)[C@@H]1NC(=O)[C@H](CC(C)C)N(C)C(=O)C[C@@H](C(=O)N2CCCCC2)N(C)C(=O)[C@H](C2CCCCC2)N(C)C(=O)C2(CCCC2)NC(=O)CN(CC)C(=O)[C@H](CCc2ccc(C(F)(F)F)c(Cl)c2)NC(=O)CN(C)C(=O)[C@H](CC2CCCCC2)N(C)C(=O)CN(C)C(=O)CN(C)C1=O [Compound 160] ([NMeL]I[Sar][Sar][NMeCha][Sar][hPhe(3-Cl-4-CF3)][NEtG][Ac5c][NMeChg][NMeD]-Piperidide; lactam N-11),50 to 100
3,CC[C@H](C)[C@@H]1NC(=O)[C@H](CC(C)C)N(C)C(=O)C[C@@H](C(=O)N2CCCCC2)N(C)C(=O)[C@H](C(C)C)N(C)C(=O)C2(CCCC2)NC(=O)[C@@H]2CCCN2C(=O)[C@H](CCc2ccc(C(F)(F)F)c(Cl)c2)NC(=O)CN(C)C(=O)[C@H](CC2CCCCC2)N(C)C(=O)[C@@H]2CCN2C(=O)[C@H](COC2CC2)N(C)C1=O [Compound 676] ([NMeL]I[NMeS](Cyclopropyl)[Aze][NMeCha][Sar][hPhe(3-Cl-4-CF3)]P[Ac5c][NMeV][NMeD]-Piperidide; lactam N-11),100 to 500
4,CC[C@H](C)[C@@H]1NC(=O)[C@H](C)N(C)C(=O)C[C@@H](C(=O)N2CCCCC2)N(C)C(=O)[C@H](C(C)C)N(C)C(=O)C2(CCCC2)NC(=O)[C@@H]2CCCN2C(=O)[C@H](CCc2cc(Cl)c(Cl)c(OC(C)C)c2)NC(=O)CN(C)C(=O)[C@H](CC2CCCCC2)N(C)C(=O)CN(C)C(=O)CN(C)C1=O [Compound 2079] ([NMeA]I[Sar][Sar][NMeCha][Sar][X60]P[Ac5c][NMeV][NMeD]-Piperidide; lactam N-11; C-terminus assumed),> 500
5,"CC[C@H](C)[C@@H]1NC(=O)[C@H](CC(C)C)N(C)C(=O)C[C@@H](C)N(C)C(=O)[C@H](C2CCCC2)N(C)C(=O)C2(CCCC2)NC(=O)[C@@H]2CC(F)(F)CN2C(=O)[C@H](CCc2ccc(C(F)(F)F)c(Cl)c2)NC(=O)CN(C)C(=O)[C@H](Cc2ccc(C(F)(F)F)cc2)N(C)C(=O)[C@@H]2CCN2C(=O)[C@H](C)N(C)C1=O [Compound 1062] (cyclo([Ac5c][NMeGly(cPent)][NMedβ3hAla][NMeL]I[NMeA][Aze][NMePhe(4-CF3)][Sar][hPhe(3-Cl-4-CF3)][Pro(4,4-F2)]))",20 to 50
6,CC[C@H](C)[C@@H]1NC(=O)[C@H](CC(C)C)N(CC)C(=O)C[C@@H](C(=O)N(C)C)N(C)C(=O)[C@H]([C@@H](C)CC)N(C)C(=O)C2(CCCC2)NC(=O)[C@@H]2CCCN2C(=O)[C@H](CCc2ccc(C(F)(F)F)c(Cl)c2)NC(=O)CN(C)C(=O)[C@H](Cc2ccc(C)cc2)N(C)C(=O)[C@@H]2CCN2C(=O)[C@H](C)NC1=O [Compound 1287] ([NEtLeu]IA[Aze][NMePhe(4-Me)][Sar][hPhe(3-Cl-4-CF3)]P[Ac5c][NMeI][NMeD]-NMe2; lactam N-11),20 to 50
7,"CCCOC[C@H]1C(=O)N(C)CC(=O)N[C@@H](CCc2ccc(C(F)(F)F)c(F)c2)C(=O)N2CCC[C@H]2C(=O)NC2(CCCC2)C(=O)N(C)[C@@H](C2CCCC2)C(=O)N(C)[C@H](C(=O)N2CCCCC2)CC(=O)N(C)[C@@H](CC(C)C)C(=O)N[C@@H]([C@@H](C)CC)C(=O)N(C)[C@@H](C)C(=O)N2CC[C@H]2C(=O)N1C [Compound 1029] ([NMeL]I[NMeA][Aze][NMeS](Propyl)[Sar][hPhe(3-F,4-CF3)]P[Ac5c][NMeGly(cPent)][NMeD]-Piperidide; lactam N-11)",20 to 50
8,CC[C@@H]1C(=O)NC2(CCCC2)C(=O)N(C)[C@@H](C2CCCC2)C(=O)N(C)[C@H](C(=O)N2CCCCC2)CC(=O)N(C)[C@@H](CC(C)C)C(=O)N[C@@H]([C@@H](C)CC)C(=O)N(C)CC(=O)N(C)CC(=O)N(C)[C@@H](CC2CCCCC2)C(=O)N(C)CC(=O)N[C@@H](CCc2ccc(C(F)(F)F)c(Cl)c2)C(=O)N1C [Compound 1439] ([NMeL]I[Sar][Sar][NMeCha][Sar][hPhe(3-Cl-4-CF3)][dNMeAbu][Ac5c][NMeGly(cPent)][NMeD]-Piperidide; lactam N-11),100 to 500
9,"CC[C@H](C)[C@@H]1NC(=O)[C@H](CC(C)C)N(C)C(=O)C[C@@H](C(=O)N2CCCC2)N(C)C(=O)[C@H]([C@@H](C)CC)N(C)C(=O)C2(CCCC2)NC(=O)[C@@H]2CCCN2C(=O)[C@H](CCc2ccc(C(F)(F)F)c(F)c2)NC(=O)CN(C)C(=O)[C@H](C2CCCC2)N(C)C(=O)[C@@H]2CCN2C(=O)[C@H](C)N(C)C1=O [Compound 313] ([NMeL]I[NMeA][Aze][NMeGly(cPent)][Sar][hPhe(3-F,4-CF3)]P[Ac5c][NMeI][NMeD]-Pyrrolidide; lactam N-11)",20 to 50
